From ChEMBL document CHEMBL1201862, “PubChem BioAssay data set” (2004)
The source made the active and inactive calls.

Assays:
Mu-type opioid receptor = Mu-type opioid receptor (Homo sapiens, UniProt P35372); type: functional, cell-based;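 further: U2OS cells with beta-arrestin recruitment to OPRM1 by beta-gal complementation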
[1] = target: 5-hydroxytryptamine receptor 2A (Mus musculus, UniProt P35363); type: functional, cell-based;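 further: CHO-K1 cells with tagged receptor and beta-arrestin; agonist potency measured as compound-induced activation of the receptor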
[2] = target: SWI/SNF-related matrix-associated actin-dependent regulator of chromatin subfamily A member 2 (Homo sapiens, UniProt P51531); test: Luminescence-based cell-based high throughput dose response assay to identify activators of the function of SWI/SNF related, matrix associated, actin dependent regulator of chromatin, subfamily a, member 2 (SMARCA2, BRM).; type: functional
SWI/SNF-related matrix-associated actin-dependent regulator of chromatin subfamily A member 2, sequence (P51531 whole entry): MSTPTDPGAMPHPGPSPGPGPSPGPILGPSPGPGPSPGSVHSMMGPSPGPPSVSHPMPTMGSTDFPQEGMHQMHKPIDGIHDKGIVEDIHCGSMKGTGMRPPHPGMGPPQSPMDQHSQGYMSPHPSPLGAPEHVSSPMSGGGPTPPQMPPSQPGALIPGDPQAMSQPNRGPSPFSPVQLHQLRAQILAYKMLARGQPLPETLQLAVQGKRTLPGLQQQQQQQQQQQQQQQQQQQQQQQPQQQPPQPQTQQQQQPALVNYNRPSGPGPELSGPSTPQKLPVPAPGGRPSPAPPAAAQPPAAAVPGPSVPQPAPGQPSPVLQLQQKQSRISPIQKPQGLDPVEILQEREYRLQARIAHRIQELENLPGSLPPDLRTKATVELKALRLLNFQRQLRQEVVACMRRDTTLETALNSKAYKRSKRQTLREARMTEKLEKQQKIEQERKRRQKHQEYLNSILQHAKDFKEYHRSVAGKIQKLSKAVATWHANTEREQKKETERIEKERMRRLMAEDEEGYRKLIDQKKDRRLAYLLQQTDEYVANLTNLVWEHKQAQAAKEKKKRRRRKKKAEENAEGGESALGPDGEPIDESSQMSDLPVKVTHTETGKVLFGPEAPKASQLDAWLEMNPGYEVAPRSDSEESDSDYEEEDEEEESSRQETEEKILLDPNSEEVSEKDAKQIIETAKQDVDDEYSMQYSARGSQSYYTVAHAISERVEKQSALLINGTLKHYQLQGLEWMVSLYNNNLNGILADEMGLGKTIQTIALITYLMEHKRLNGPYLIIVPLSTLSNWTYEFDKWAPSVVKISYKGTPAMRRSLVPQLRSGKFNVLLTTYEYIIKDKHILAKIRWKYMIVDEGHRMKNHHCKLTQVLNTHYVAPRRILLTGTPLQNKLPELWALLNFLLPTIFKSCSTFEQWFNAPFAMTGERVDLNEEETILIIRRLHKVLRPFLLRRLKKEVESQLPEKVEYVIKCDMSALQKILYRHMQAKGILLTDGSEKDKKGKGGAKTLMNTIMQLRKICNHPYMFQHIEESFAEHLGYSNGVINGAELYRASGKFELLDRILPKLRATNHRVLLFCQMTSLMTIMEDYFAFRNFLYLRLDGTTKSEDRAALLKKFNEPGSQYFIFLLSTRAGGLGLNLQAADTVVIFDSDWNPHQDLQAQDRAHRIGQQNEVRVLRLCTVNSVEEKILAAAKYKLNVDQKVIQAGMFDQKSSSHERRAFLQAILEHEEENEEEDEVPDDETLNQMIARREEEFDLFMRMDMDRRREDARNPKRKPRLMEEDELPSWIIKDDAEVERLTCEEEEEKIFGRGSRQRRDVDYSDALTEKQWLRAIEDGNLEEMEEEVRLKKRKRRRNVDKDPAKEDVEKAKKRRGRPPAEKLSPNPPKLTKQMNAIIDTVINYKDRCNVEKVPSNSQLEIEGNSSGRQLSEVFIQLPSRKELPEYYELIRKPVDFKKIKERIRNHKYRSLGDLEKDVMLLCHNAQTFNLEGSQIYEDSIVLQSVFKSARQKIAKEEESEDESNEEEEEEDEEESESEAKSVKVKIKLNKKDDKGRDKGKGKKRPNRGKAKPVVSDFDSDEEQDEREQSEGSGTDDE

[3] = Counterscreen for activators of the function of SWI/SNF related, matrix associated, actin dependent regulator of chromatin, subfamily a, member 2 (SMARCA2, BRM): Luminescence-based cell-based high throughput dose response assay to identify non-selective compounds using the VP16 reporter assay.; type: functional
[4] = target: Photoreceptor-specific nuclear receptor (Homo sapiens, UniProt Q9Y5X4); test: ligands suppressing NR2E3 nuclear receptor activity – biochemical, TR-FRET, dose response (AID 463256); type: functional
[5] = target: Peroxisome proliferator-activated receptor gamma/Nuclear receptor corepressor 2 (Homo sapiens, UniProt P37231+Q9Y618); test: Counterscreen for NR2E3 inverse agonists: TR-FRET-based biochemical high throughput dose response assay to identify inverse agonists of the interaction between peroxisome proliferator-activated receptor gamma (PPARg) and nuclear receptor co-repressor 2 (NCOR2).; type: functional
Peroxisome proliferator-activated receptor gamma/Nuclear receptor corepressor 2, sequence (P37231 whole entry): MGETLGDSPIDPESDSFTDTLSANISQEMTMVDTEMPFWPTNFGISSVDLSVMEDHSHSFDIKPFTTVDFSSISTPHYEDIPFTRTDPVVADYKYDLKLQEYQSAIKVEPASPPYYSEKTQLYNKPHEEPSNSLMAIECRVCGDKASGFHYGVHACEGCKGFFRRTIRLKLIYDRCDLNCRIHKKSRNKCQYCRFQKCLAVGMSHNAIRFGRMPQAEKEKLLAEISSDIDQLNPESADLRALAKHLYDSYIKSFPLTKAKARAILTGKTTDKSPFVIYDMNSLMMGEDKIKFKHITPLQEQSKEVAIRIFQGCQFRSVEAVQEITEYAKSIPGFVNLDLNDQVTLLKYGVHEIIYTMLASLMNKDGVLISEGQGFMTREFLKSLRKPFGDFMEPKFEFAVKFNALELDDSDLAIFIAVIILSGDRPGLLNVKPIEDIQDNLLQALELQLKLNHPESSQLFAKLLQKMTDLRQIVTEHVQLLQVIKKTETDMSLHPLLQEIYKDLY
Peroxisome proliferator-activated receptor gamma/Nuclear receptor corepressor 2, sequence (Q9Y618 whole entry): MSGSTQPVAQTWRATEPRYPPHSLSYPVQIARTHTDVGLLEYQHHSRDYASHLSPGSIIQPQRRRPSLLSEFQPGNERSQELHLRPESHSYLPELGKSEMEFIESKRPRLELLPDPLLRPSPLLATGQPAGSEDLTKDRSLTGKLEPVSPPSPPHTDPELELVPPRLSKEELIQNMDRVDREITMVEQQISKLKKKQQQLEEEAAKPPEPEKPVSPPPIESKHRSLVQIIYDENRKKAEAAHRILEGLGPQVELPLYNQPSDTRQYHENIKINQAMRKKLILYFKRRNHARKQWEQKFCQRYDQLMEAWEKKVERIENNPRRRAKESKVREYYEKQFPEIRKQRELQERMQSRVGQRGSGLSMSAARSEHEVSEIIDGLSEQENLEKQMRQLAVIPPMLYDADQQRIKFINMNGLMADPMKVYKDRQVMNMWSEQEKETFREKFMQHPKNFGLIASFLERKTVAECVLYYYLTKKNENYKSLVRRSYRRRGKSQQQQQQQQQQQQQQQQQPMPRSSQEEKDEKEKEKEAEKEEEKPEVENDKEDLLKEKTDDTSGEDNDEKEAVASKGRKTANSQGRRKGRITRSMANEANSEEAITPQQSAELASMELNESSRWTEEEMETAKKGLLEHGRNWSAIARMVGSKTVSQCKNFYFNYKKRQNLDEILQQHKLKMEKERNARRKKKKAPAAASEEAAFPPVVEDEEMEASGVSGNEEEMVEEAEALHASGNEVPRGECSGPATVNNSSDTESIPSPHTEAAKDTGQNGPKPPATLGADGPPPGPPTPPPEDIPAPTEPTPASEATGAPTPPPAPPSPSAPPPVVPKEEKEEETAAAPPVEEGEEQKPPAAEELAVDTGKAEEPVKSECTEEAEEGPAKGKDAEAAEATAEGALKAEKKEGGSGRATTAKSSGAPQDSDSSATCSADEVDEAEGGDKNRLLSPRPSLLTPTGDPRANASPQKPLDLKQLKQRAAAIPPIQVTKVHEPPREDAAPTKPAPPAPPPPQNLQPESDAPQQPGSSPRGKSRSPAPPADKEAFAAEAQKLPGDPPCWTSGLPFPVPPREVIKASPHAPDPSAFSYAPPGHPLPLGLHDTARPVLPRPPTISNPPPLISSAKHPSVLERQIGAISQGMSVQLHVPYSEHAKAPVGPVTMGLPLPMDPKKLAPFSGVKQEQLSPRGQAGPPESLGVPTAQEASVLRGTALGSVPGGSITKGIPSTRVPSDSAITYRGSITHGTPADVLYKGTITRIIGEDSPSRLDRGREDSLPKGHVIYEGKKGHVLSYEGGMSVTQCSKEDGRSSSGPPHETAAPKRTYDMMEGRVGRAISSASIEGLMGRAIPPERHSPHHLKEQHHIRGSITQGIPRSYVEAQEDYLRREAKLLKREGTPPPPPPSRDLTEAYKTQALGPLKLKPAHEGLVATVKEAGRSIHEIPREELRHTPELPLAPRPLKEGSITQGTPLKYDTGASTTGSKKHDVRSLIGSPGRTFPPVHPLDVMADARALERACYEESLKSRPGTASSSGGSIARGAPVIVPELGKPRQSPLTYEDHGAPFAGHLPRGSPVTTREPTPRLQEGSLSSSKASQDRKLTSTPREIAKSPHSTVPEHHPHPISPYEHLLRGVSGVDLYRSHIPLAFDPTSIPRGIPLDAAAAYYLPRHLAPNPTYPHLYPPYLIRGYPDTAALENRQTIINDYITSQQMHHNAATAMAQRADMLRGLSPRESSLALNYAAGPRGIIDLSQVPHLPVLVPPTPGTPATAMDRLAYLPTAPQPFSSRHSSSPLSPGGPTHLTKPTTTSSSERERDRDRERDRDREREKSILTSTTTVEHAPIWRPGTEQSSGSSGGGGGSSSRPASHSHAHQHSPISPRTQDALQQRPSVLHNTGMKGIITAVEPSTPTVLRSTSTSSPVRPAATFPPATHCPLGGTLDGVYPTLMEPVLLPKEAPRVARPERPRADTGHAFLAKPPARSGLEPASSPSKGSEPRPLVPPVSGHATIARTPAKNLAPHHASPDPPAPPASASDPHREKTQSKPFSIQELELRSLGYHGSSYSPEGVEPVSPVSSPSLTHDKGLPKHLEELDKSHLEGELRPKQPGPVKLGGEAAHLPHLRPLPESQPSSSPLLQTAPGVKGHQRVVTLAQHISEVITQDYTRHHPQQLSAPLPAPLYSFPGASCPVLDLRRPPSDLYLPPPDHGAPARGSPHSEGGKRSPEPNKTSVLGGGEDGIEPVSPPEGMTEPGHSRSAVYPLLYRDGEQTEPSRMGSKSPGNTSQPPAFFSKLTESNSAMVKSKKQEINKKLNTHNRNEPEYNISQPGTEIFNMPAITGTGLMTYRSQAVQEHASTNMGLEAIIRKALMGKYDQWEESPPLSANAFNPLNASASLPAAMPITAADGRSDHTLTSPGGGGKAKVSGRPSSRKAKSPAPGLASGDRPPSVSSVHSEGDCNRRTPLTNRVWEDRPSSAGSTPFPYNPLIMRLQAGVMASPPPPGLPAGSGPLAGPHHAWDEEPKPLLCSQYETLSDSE

[6] = target: T1, Corticotropin-releasing factor receptor 2/Corticotropin-releasing factor-binding protein (Homo sapiens, UniProt P24387+Q13324); test: activators of CRF receptor 2 with binding protein – uHTS hits, confirmation (AID 602473); type: functional; settings: read-out: EC50_Mean
T1 sequence (Q13324 whole entry): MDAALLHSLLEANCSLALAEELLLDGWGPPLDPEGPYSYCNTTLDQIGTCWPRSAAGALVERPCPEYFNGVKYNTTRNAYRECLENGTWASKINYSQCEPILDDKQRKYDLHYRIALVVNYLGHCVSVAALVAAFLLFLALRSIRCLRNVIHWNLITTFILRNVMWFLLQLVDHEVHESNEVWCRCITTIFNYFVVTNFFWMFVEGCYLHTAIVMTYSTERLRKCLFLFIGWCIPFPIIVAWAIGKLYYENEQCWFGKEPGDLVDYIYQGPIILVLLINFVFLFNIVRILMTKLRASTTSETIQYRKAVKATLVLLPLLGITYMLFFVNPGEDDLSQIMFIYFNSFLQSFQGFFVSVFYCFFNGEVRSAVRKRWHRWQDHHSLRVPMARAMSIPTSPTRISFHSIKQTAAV
T1 sequence (P24387 whole entry): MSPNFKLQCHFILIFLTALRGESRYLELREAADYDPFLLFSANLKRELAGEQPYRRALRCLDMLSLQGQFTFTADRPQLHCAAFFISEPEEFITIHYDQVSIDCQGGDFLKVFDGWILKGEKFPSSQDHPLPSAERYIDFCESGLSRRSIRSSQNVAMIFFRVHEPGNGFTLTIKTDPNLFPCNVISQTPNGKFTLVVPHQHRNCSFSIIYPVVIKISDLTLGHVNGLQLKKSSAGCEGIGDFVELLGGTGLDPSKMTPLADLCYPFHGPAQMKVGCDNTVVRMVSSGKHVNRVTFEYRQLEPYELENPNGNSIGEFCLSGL

[7] = target: T1, Corticotropin-releasing factor receptor 2/Corticotropin-releasing factor-binding protein; test: Dose Response confirmation of uHTS hits for small molecule antagonists of the CRF-binding protein and CRF-R2 receptor complex.; type: functional; settings: read-out: IC50_Mean
[8] = alpha-synuclein stem-loop luciferase translation blockers – H4 neuroglioma cells, luminescence, confirmation (AID 1988); type: functional, cell-based
[9] = Luminescence Cell-Based Dose Response HTS to Identify Inhibitors of 5'UTR Stem-Loop Driven Prion Protein mRNA Translation in H4 Neuroglioblastoma Cells. [Related pubchem assays: 1827 (Project Summary), 1813 (Primary HTS)]; type: functional
[10] = luciferase reporter signal suppression in cells – H4 neuroglioma cells, luminescence, dose response (AID 1990); type: functional, cell-based
[11] = target: T2, Replicative DNA helicase DnaB (Mycobacterium tuberculosis, UniProt P9WMR3); test: DnaB intein splicing inhibitors, dose response, biochemical, cell-free fluorescence (AID 449749); type: functional
T2 sequence (P9WMR3 whole entry): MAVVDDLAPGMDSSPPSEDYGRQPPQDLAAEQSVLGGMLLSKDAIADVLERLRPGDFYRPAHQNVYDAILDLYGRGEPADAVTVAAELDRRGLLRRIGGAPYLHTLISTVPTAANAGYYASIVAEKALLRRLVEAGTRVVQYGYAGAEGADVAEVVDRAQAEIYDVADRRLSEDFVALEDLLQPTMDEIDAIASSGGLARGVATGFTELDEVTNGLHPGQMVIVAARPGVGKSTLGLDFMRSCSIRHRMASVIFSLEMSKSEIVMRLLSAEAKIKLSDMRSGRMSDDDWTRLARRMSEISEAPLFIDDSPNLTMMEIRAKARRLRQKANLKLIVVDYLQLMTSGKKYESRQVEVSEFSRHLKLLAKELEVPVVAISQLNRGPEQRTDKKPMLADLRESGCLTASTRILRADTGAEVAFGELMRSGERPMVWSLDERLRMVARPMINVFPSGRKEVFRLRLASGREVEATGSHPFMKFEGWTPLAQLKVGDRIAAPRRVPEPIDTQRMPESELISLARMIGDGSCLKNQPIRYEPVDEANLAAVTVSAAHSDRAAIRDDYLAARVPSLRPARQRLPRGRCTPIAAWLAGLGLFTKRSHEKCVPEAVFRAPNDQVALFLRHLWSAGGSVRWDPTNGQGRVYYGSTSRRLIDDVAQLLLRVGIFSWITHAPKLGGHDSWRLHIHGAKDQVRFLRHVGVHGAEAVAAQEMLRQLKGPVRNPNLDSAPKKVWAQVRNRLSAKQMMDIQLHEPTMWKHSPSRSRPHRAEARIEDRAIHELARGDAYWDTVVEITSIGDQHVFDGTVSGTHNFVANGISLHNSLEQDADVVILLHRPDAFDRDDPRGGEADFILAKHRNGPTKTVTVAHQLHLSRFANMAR

Protein RecA = target: T3, Protein RecA (Mycobacterium tuberculosis, UniProt P9WHJ3); test: Fluorescence Cell-Free Homogeneous Dose Retest to Identify Inhibitors of RecA-Intein Splicing Activity. [Related pubchem assays (depositor defined):AID2097, AID2223, AID489010, AID492950]; type: functional
T3 sequence (P9WHJ3 whole entry): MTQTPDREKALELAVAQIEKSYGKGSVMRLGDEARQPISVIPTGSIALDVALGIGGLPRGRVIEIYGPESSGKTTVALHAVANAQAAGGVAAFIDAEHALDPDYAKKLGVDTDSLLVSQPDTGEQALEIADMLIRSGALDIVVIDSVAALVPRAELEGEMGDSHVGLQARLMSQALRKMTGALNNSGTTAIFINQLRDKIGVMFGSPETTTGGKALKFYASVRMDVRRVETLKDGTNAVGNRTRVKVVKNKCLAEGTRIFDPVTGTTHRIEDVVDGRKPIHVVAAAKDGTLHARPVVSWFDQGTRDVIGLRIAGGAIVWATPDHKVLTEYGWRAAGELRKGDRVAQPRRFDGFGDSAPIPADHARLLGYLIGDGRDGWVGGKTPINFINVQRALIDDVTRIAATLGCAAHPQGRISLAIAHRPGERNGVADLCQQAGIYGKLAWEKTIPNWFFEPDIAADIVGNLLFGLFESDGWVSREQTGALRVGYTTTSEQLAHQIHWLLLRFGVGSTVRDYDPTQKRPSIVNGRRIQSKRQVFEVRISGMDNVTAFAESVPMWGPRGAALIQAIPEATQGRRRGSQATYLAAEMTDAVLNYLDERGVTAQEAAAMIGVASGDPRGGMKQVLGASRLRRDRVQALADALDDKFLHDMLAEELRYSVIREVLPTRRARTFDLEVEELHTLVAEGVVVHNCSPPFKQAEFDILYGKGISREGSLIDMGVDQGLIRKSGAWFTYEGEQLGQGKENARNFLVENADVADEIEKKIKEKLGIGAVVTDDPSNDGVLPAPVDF

Paired box protein Pax-8 = Paired box protein Pax-8 (Homo sapiens, UniProt Q06710); test: PAX8 transcriptional activity inhibition in RMG-I – RMG-I cells, luciferase, cherry-pick, dose response (AID 687027); type: functional, cell-based;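 further: luciferase reporter driven by Pax8 target thyroperoxidase promoter measured by SteadyGlo luminescence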
[12] = OVCAR-3 cell viability loss – plate reader, dry powder samples, PAX8 inhibitor project, dose response (AID 743044); type: functional, cell-based
[13] = OVCAR8 cell viability loss – plate reader, dry powder samples, PAX8 project, dose response (AID 743197); type: functional, cell-based; settings: OVCAR-8
[14] = growth inhibition of PfATP4-mutant resistant parasites – NITD609-resistant line, SYBR Green, dry powder, dose response (AID 1159571); type: functional, cell-based;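 further: parasites synchronized at ring stage by sorbitol before testing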
[15] = growth inhibition of yeast DHODH-expressing 3D7 parasites – SYBR Green, dry powder samples, dose response (AID 1159570); type: functional, cell-based;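 further: parasite growth measured after 72 hours of compound exposure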
[16] = toxicity to human HepG2 hepatoma cells – cell-based, plate reader, dry powder samples, cytotoxicity control, dose response (AID 1159569); type: functional;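 further: inhibitor potency with signal falling toward the positive control level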
[17] = P. falciparum Dd2 growth inhibitors, dose response, SYBR Green, cherry-picked samples (AID 1159567); type: functional, cell-based
[18] = Dd2 malaria parasite growth inhibition potency – SYBR Green, dry powder samples, dose response (AID 1159566); type: functional, cell-based;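 further: potency for growth inhibition with lower SYBR green DNA signal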

Mu-type opioid receptor, sequence (P35372 whole entry): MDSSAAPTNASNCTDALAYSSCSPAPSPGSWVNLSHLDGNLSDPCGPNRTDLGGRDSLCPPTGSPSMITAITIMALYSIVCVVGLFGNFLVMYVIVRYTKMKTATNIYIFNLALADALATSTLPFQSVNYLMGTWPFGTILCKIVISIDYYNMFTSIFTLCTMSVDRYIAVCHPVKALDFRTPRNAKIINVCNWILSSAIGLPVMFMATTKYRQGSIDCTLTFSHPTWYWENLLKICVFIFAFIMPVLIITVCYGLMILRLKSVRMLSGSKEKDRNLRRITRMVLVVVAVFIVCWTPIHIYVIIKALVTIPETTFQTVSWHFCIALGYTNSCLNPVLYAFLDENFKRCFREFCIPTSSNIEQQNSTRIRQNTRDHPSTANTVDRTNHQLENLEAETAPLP

O=S(=O)(c1ccc(OCC(O)CN2CCN(c3ccccc3O)CC2)cc1)N1CCOCC1 (centres undefined)
EC50 (Mu-type opioid receptor): 92.5 µM (inactive) | EC50 [1]: 76.1 µM (inactive)

Cc1ccsc1C(=O)OCC(=O)NCCC1=CCCCC1
EC50 [2]: > 91.1 µM (inactive) | EC50 [3]: > 91.1 µM (inactive)

O=S(=O)(c1ccc(OCC(O)CN2CCN(c3ccccc3Cl)CC2)cc1)N1CCOCC1 (centres undefined)
EC50 (Mu-type opioid receptor): 92.5 µM (inactive) | EC50 [1]: 25.4 µM (inactive)

CCn1cnc2sc(C(=O)Nc3ccccc3OC)c(C)c2c1=O
IC50 [4]: 7.11 µM (active) | IC50 [5]: 4.9 µM (active)

CC1CCC2=NN(C(=O)c3ccco3)C(O)(C(F)(F)F)C2C1 (centres undefined)
EC50 [6]: > 53 µM (inactive) | IC50 [7]: > 47.1 µM (inactive)

Cc1ccc2nc(-c3cc(-c4ccccc4)no3)cn2c1
EC50 [8]: 3.08 µM (active) | IC50 [4]: > 39.8 µM (not active) | EC50 [9]: 3.61 µM (active) | EC50 [10]: 7.48 µM (inconclusive) | IC50 [5]: > 39.8 µM (not active)

COc1ccc(-c2cc(C#N)nc(Cl)n2)cc1
AC50 [11]: 79.8 µM (active) | EC50 [2]: > 91.2 µM (inactive) | EC50 (Protein RecA): 37.2 µM (active) | EC50 [3]: > 91.2 µM (inactive)

C[C@H](NC(=O)Nc1ccc2c(c1)OCCO2)C(=O)O
EC50 [6]: > 53 µM (inactive) | IC50 [7]: > 47.1 µM (inactive)

O=C(Nc1cccc(-n2cnnn2)c1)c1cc2ccccc2o1
IC50 [4]: 6.55 µM (active) | IC50 [5]: 5.91 µM (active)

Nc1nc(CN2CCN(Cc3ccccc3)CC2)nc(Nc2ccc3c(c2)OCCO3)n1
EC50 [2]: > 91.2 µM (inactive) | EC50 [3]: > 91.2 µM (inactive)

CC(=O)c1cccc(OCC(O)CN2CC=C(c3ccccc3)CC2)c1 (centres undefined)
EC50 (Mu-type opioid receptor): 92.5 µM (inactive) | EC50 [1]: 0.0752 µM (active)

Cc1ccc(CN(C(=O)c2ccccc2[N+](=O)[O-])C2CCS(=O)(=O)C2)o1 (centres undefined)
EC50 [6]: > 53 µM (inactive) | IC50 [7]: > 47.1 µM (inactive)

Cc1ccccc1-c1ccc2c(c1)O[C@H](CN(C)C(=O)Nc1ccc(C(F)(F)F)cc1)[C@@H](C)CN([C@H](C)CO)S2(=O)=O
AC50 (Paired box protein Pax-8): 8 µM (active) | AC50 [12]: 41.1 µM (active) | AC50 [13]: > 70 µM (inactive)

C[C@@H]1CCCCO[C@H](CN(C)Cc2ccc(C(F)(F)F)cc2)[C@H](C)CN([C@@H](C)CO)C(=O)c2cc(NS(=O)(=O)c3ccc(Cl)cc3)ccc2O1
AC50 (Paired box protein Pax-8): 5.9 µM (active) | AC50 [12]: 16.4 µM (active) | AC50 [13]: > 70 µM (inactive)

Cc1ccc(S(=O)(=O)N(C)C[C@H]2OCCCC[C@H](C)Oc3ccc(NS(=O)(=O)c4ccc(Cl)cc4)cc3C(=O)N([C@@H](C)CO)C[C@@H]2C)cc1
AC50 (Paired box protein Pax-8): 6.7 µM (active) | AC50 [13]: > 70 µM (inactive)

O=C(CCN1CCN(c2ccccc2)CC1)N/N=C/c1ccccc1OC(F)F
EC50 (Mu-type opioid receptor): 92.5 µM (inactive) | EC50 [1]: 25.4 µM (inactive)

COc1ccc2c3c([nH]c2c1)[C@@H](CO)N(Cc1cccc(F)c1)CC31CCN(Cc2ccccn2)CC1
AC50 [14]: 1.1 µM (active) | AC50 [15]: 1.32 µM (active) | AC50 [16]: 48.6 µM (active) | AC50 [17]: 1.21 µM (active) | AC50 [18]: 1.52 µM (active)

COc1ccc(S(=O)(=O)N(C)C[C@H]2Oc3c(NC(=O)Nc4cccc5ccccc45)cccc3C(=O)N([C@@H](C)CO)C[C@H]2C)cc1
AC50 [14]: 0.277 µM (active) | AC50 [15]: 0.3 µM (active) | AC50 [16]: > 100 µM (inactive) | AC50 [17]: 0.489 µM (active) | AC50 [18]: 0.327 µM (active)

COc1cccc(NC(=O)N2[C@@H](CO)[C@@H](c3ccccc3)[C@@H]2CNCC(C)C)c1
AC50 [14]: 1.4 µM (active) | AC50 [15]: 1.08 µM (active) | AC50 [16]: 67.9 µM (active) | AC50 [17]: 1.78 µM (active) | AC50 [18]: 1.05 µM (active)
